From patent publication US12240870B2, “Sequencing method for CAR T cell therapy” (Purdue Research Foundation, priority 2018, dated 2025)
Entries after “also recorded” stand apart in the source; their conditions may differ.

Legend:
THP1-FRβ xenografts [1] = assay: THP1-FRβ AML intravenous xenograft, E2 CAR-T cells plus EC17; format: in vivo, NSG mice
Description: Panel A: Schematic diagrams to show dose scheduling of EC17 plus unsorted EGFRt CAR-T cells (˜6 million, day 0) in NSG mice with 1-day-old intravenous THP1-FRβ xenografts. Starting 3 days after CAR-T cell injection, EC17 was dosed in 3 different ways: EC17 SIW 500 nmol/kg ([…] on days 3, 10, 17, 24, 31, and 38), EC17 TIW 5/50/500 nmol/kg (3 repeats of 5/50/500 nmol/kg on Monday/Wednesday/Friday followed by a 9-day break, i.e. on days 3/5/7, 17/19/21 and 31/33/35), or EC17 M/Th/M_dose escalation on Monday/Thursday/Monday (3 escalation cycles at 5/10/100 nmol/kg in Cycle 1, 5/30/300 nmol/kg in Cycle 2, and 5/50/500 nmol/kg in Cycle 3, i.e. on days 3/6/10, 17/20/24, and 31/34/38). Panel B: Measurements of change in body weight (n=5). Panel C: Circulating CAR-T cells as human CD3ε+ EGFRt+ events found per 100 μL of mouse whole blood on a logarithmic scale on day 31. Panel D: Left bar graph: circulating tumor cells (GFP+) per 100 μL of whole blood in all cohorts measured at the end of study (day 39); Middle bar graph: THP1-FRβ infiltrated liver weights representing liver metastatic burden; Right bar graph: total tumor weights of all non-liver macrometastases. Panel E: Flow cytometric analysis of T-cell exhaustion markers, PD1, LAG3, TIM3, on preinfusion CAR-T cell product (triple-negative) and tumor-infitrating CAR-T cells isolated from liver metastases. A cardinal feature of fully exhausted T cells is co-expression of multiple inhibitory receptor markers (i.e. triple-positive).
One objective of this E2-CAR T-cell study was to test EC17/E2 CAR-T cell activity and related toxicity (e.g. sCRS) using multiple dosing regimens starting 3 days after CAR-T infusion. Three different EC17 dosing regimens include (a) once-a-week (SIW) at 500 nmol/kg, (b) “TIW-like” at 5, 50, and 500 nmol/kg on Monday/Wednesday/Friday with 9-day intervals, and (c) “TIW-like” at […] on Monday/Thursday/Monday with 7-day intervals.
THP-1-FRβ AML tumor cells were grown in folate-deficient RPMI 1640 with 5-10% FBS at 37° C. in a 5% CO2 humidified atmosphere. THP-1-FRβ tumor cells in serum-free folate-deficient RPMI1640 medium were i.v. injected at 5×10^6 cells per animal.
Anti-FITC E2 scFv-CAR T cells were frozen in a T-cell freezing medium. Upon arrival, vials of frozen CAR-T cells were immediately stored at −80° C. The CAR-T cells were quickly thawed at 37° C., washed twice with CAR-T cell culture medium, and used for animal injection at 6 million viable EGFRt+ E2 CAR-T cells (CD4/CD8 at ˜1:1) per animal. A small aliquot was taken on the day infusion for flow cytometric analysis of E2-CAR T-cell phenotypes.
EC17 and bis-EDA-FITC dosing solutions were prepared when dosing began by weighing appropriate amounts of each compound, reconstituting in PBS, pH 7.4, sterile filtering the drug solution through a 0.22 μm PVDF syringe filter, and freezing aliquots for each day of dosing at −20° C.
All EC17 doses were given towards the end of day (3-4 PM) to allow potential CRS (cytokine release syndrome) to develop overnight. In the following morning, animals were scored according to a CRS grading system (see below).
Daily body weight measurement on the days after EC17 dose is required. Attention was given to gross animal morphology and behavior. Euthanasia was performed if mice lose a lot of weight in a short duration or when mice are approaching moribund conditions per CRS grading system or neurotoxicity.
Whole blood cell analysis: Plasma was removed from predetermined volumes of whole EDTA treated blood and RBCs were lysed with RBC lysis solution. […]

THP1-FRβ xenografts [2] = assay: as above; format: in vivo, NSG mice; remark: listed apart in the source

Compound: Nc1nc2ncc(CNc3ccc(C(=O)N[C@@H](CCC(=O)NCCNC(=S)Nc4ccc(-c5c6ccc(=O)cc-6oc6cc(O)ccc56)c(C(=O)O)c4)C(=O)O)cc3)nc2c(=O)[nH]1 [EC17, FA-(γ)-ethylenediamine-FITC]
- non-liver macrometastases (THP1-FRβ xenografts [1]; EC17 SIW 500 nmol/kg): successfully controlled non-liver macrometastases
- CRS grade (THP1-FRβ xenografts [1]; EC17 SIW 500 nmol/kg (Cohort 3)): 1-2
- non-liver macrometastases (THP1-FRβ xenografts [1]; EC17 TIW 5/50/500 nmol/kg on/off): successfully controlled non-liver macrometastases
- overall anti-tumor activity / THP1-FRβ tumor burden, comparison of regimens (THP1-FRβ xenografts [1]; EC17 TIW 5/50/500 nmol/kg on/off (Cohort 4)): best anti-tumor activity among the three different EC17 dose schedules; also recorded: trended to be the best regimen for reducing overall THP1-FRβ tumor burden
- circulating THP1-FRβ tumor cells (GFP+) per 100 μL whole blood (THP1-FRβ xenografts [1]; all three EC17 dosing regimens, day 39): significant reduction in circulating THP1 cell burden; also recorded: effectively reduced circulating THP1-FRβ tumor cells in the blood
- severe CRS (grades ≥3) (THP1-FRβ xenografts [1]; any EC17 treated cohort (SIW, TIW, M/Th/M)): no severe CRS
- body weight loss (THP1-FRβ xenografts [1]; ~6 million E2 CAR-T + EC17 SIW 500 nmol/kg (Cohort 3)): EC17 dose-dependent body weight loss after each EC17 dose; also recorded: some body weight loss
- body weight loss (THP1-FRβ xenografts [1]; ~6 million E2 CAR-T + EC17 TIW 5/50/500 nmol/kg M/W/F, 9-day break (Cohort 4)): mildest body weight loss among three treatment groups; also recorded: least body weight loss
- non-liver macrometastases (THP1-FRβ xenografts [2]; EC17 M/Th/M dose escalation at a slow pace per cycle): failed to control the non-liver macrometastases
- body weight loss (THP1-FRβ xenografts [2]; ~6 million E2 CAR-T + EC17 M/Th/M dose escalation, 6-day break (Cohort 5)): little body weight loss during the first two cycles; also recorded: very mild body weight loss
